ChEMBL document CHEMBL1132020, “Highly potent inhibitors of the Grb2-SH2 domain” (Bioorg Med Chem Lett, 1999)
pIC50: −log10 of the molar value.

Target: Growth factor receptor-bound protein 2 (Homo sapiens, UniProt P62993)
Experiment: Inhibition of Grb-SH2 domain binding to phosphorylated carboxy-terminal intracellular domain of epidermal growth factor receptor
Assay type: cell-based

pIC50	Compound
7.23	CC(=O)N[C@@H](Cc1ccc(CP(=O)(O)O)cc1)C(=O)NC1(C(=O)N[C@@H](CC(N)=O)C(=O)NCCCn2ccc3cc(Cl)ccc32)CCCCC1
6.81	CC(=O)N[C@@H](Cc1ccc(CP(=O)(O)O)cc1)C(=O)NC1(C(=O)N[C@@H](CC(N)=O)C(=O)NCCCc2c[nH]c3ccccc23)CCCCC1
7.83	CC(=O)N[C@@H](Cc1ccc(CP(=O)(O)O)cc1)C(=O)NC1(C(=O)N[C@@H](CC(N)=O)C(=O)NCCCn2c(C)cc3ccccc32)CCCCC1
8.04	CC(=O)N[C@@H](Cc1ccc(CP(=O)(O)O)cc1)C(=O)NC1(C(=O)N[C@@H](CC(N)=O)C(=O)NCCCc2cn(C)c3ccccc23)CCCCC1

Continued, compound first:

Compound	pIC50
COc1ccc2c(ccn2CCCNC(=O)[C@H](CC(N)=O)NC(=O)C2(NC(=O)[C@H](Cc3ccc(CP(=O)(O)O)cc3)NC(C)=O)CCCCC2)c1	9.05
CC(=O)N[C@@H](Cc1ccc(CP(=O)(O)O)cc1)C(=O)NC1(C(=O)N[C@@H](CC(N)=O)C(=O)NCCCn2ccc3cc(C)ccc32)CCCCC1	9.40
CC(=O)N[C@@H](Cc1ccc(CP(=O)(O)O)cc1)C(=O)NC1(C(=O)N[C@@H](CC(N)=O)C(=O)NCCCn2cc(C)c3ccccc32)CCCCC1	7.09
CC(=O)N[C@@H](Cc1ccc(CP(=O)(O)O)cc1)C(=O)NC1(C(=O)N[C@@H](CC(N)=O)C(=O)NCCCn2ccc3ccccc32)CCCCC1	8.92
CC(=O)N[C@@H](Cc1ccc(CP(=O)(O)O)cc1)C(=O)NC1(C(=O)N[C@@H](CC(N)=O)C(=O)NCCCn2ccc3cc(O)ccc32)CCCCC1	9.52
COc1ccc2c(CCCNC(=O)[C@H](CC(N)=O)NC(=O)C3(NC(=O)[C@H](Cc4ccc(CP(=O)(O)O)cc4)NC(C)=O)CCCCC3)c[nH]c2c1	7.85
CC(=O)N[C@@H](Cc1ccc(CP(=O)(O)O)cc1)C(=O)NC1(C(=O)N[C@@H](CC(N)=O)C(=O)NCCCn2ccc3cc(N(C)C)ccc32)CCCCC1	8.47
